# Experimental data: patent US20050234125A1, “Alpha-sulfonylamino-acetonitriles” (priority 2002, published 2005)
row,melting point [°C],SMILES
1,119 to 120,CC(C#N)(COc1ccc(Cl)cc1)S(=O)(=O)Cc1ccc(Cl)cc1 (centres unmarked)
2,120 to 121,CC(C#N)(COc1ccc(Cl)cc1)NS(=O)(=O)Cc1ccccc1 (centres unmarked)
